Measurements from PubChem BioAssay AID330 (DTP/NCI, 2004).
Several values for one entry are separate records, joined by “and”; a condition that tells them apart may be missing. Equal values may be shown once. Toxic doses and inconclusive results are not listed. Rule for the calls: active = survival T/C of 150% or more; inactive = T/C below 125% in these data.

System: P388 leukemia ip, CD2F1 mice, survival T/C
Assay: NCI In Vivo Anticancer Drug Screen. Data for tumor model P388 Leukemia (intraperitoneal) in CD2F1 (CDF1) mice
Conditions: endpoint: median survival time, higher = longer survival
Method in brief: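 Mice carrying the transplanted tumor received test compound or vehicle. Survival was recorded in each group, and the value is the treated-group measurement divided by that of the vehicle-treated control group.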

[1] = dose: 100.0 mg/kg/injection, schedule: Q01DX009 (ip), vehicle: Klucel (hydroxypropylcellulose) (HPC)
[2] = dose: 200.0 mg/kg/injection, schedule: Q01DX009 (ip), vehicle: Klucel (hydroxypropylcellulose) (HPC)
[3] = dose: 12.5 mg/kg/injection, schedule: Q01DX009 (ip), vehicle: saline with Tween-80
[4] = dose: 25.0 mg/kg/injection, schedule: Q01DX009 (ip), vehicle: saline with Tween-80
[5] = dose: 50.0 mg/kg/injection, schedule: Q01DX009 (ip), vehicle: saline with Tween-80
[6] = dose: 200.0 mg/kg/injection, schedule: Q01DX009 (ip), vehicle: saline with Tween-80
[7] = dose: 100.0 mg/kg/injection, schedule: Q01DX009 (ip), vehicle: saline with Tween-80
[8] = dose: 400.0 mg/kg/injection, schedule: Q01DX009 (ip), vehicle: saline with Tween-80

Measured: T/C

CCCCn1cnc2c(SC)ncnc21
inactive: dose: 22.0 mg/kg/injection, schedule: Q04DX003 (ip), vehicle: saline with Tween-80 110 % of control | dose: 33.0 mg/kg/injection, schedule: Q04DX003 (ip), vehicle: saline with Tween-80 110 % of control | dose: 50.0 mg/kg/injection, schedule: Q04DX003 (ip), vehicle: saline with Tween-80 115 % of control | dose: 75.0 mg/kg/injection, schedule: Q04DX003 (ip), vehicle: saline with Tween-80 110 % of control

CO[C@@H]1[C@H](O)c2ccccc2N1C(C)=O
inactive: dose: 60.0 mg/kg/injection, schedule: Q01DX005 (ip), vehicle: saline 102 % of control | dose: 120.0 mg/kg/injection, schedule: Q01DX005 (ip), vehicle: saline 108 % of control | dose: 240.0 mg/kg/injection, schedule: Q01DX005 (ip), vehicle: saline 101 % of control

NNC(=O)C(=O)NNC1CCCCC1
inactive: [1] 101 % of control | [2] 104 % of control

CC(CCCCCCCC1CC(OS(=O)(=O)O)CCCCCCCCCCCC(OS(=O)(=O)O)CC(OS(=O)(=O)O)CCCCCCCCCCCCCC(=O)O1)OS(=O)(=O)O (stereo not drawn) (tested in a mixture with another compound)
inactive: dose: 25.0 micrograms/kg/injection, schedule: Q01DX005 (ip), vehicle: Klucel (hydroxypropylcellulose) (HPC) 98 % of control | dose: 50.0 micrograms/kg/injection, schedule: Q01DX005 (ip), vehicle: Klucel (hydroxypropylcellulose) (HPC) 103 % of control | dose: 100.0 micrograms/kg/injection, schedule: Q01DX005 (ip), vehicle: Klucel (hydroxypropylcellulose) (HPC) 97 % of control | dose: 200.0 micrograms/kg/injection, schedule: Q01DX005 (ip), vehicle: Klucel (hydroxypropylcellulose) (HPC) 97 % of control

C=C1C(=O)OC2/C=C(\C)CC/C=C(\C)CC(OC(=O)/C(=C/C)CO)C12 (stereo not drawn)
inactive: dose: 25.0 mg/kg/injection, schedule: Q01DX001 (ip), vehicle: Klucel (hydroxypropylcellulose) (HPC) 101 % of control | dose: 50.0 mg/kg/injection, schedule: Q01DX001 (ip), vehicle: Klucel (hydroxypropylcellulose) (HPC) 96 % of control | dose: 100.0 mg/kg/injection, schedule: Q01DX001 (ip), vehicle: Klucel (hydroxypropylcellulose) (HPC) 110 % of control

OCC1OC(n2cnc3c(NO)ncnc32)C(O)C1O (stereo not drawn)
inactive: dose: 12.5 mg/kg/injection, schedule: Q01DX009 (ip), vehicle: Klucel (hydroxypropylcellulose) (HPC) 102 % of control | dose: 25.0 mg/kg/injection, schedule: Q01DX009 (ip), vehicle: Klucel (hydroxypropylcellulose) (HPC) 100 % of control | dose: 50.0 mg/kg/injection, schedule: Q01DX009 (ip), vehicle: Klucel (hydroxypropylcellulose) (HPC) 99 % of control and 109 % of control and 110 % of control | [1] 100 % of control and 107 % of control and 113 % of control | [2] 103 % of control and 113 % of control and 97 % of control | dose: 400.0 mg/kg/injection, schedule: Q01DX009 (ip), vehicle: Klucel (hydroxypropylcellulose) (HPC) 102 % of control and 119 % of control

O=C(NC1CC(c2ccccc2)(c2ccccc2)OC1=O)OCc1ccccc1 (stereo not drawn)
inactive: [3] 90 % of control | [4] 93 % of control | [5] 90 % of control and 93 % of control | [6] 93 % of control

O=C(N/N=C/c1cc(Br)cc(Br)c1[O-])c1ccccc1.O=C(N/N=C/c1cc(Br)cc(Br)c1[O-])c1ccccc1.[Fe+2]
inactive: dose: 100.0 mg/kg/injection, schedule: Q01DX001 (ip), vehicle: saline with Tween-80 86 % of control | dose: 200.0 mg/kg/injection, schedule: Q01DX001 (ip), vehicle: saline with Tween-80 86 % of control | dose: 400.0 mg/kg/injection, schedule: Q01DX001 (ip), vehicle: saline with Tween-80 93 % of control

Cc1ncc(C(=O)O)c2c1OC(C)(C)OC2
inactive: dose: 50.0 mg/kg/injection, schedule: Q01DX005 (ip), vehicle: saline with Tween-80 104 % of control | dose: 100.0 mg/kg/injection, schedule: Q01DX005 (ip), vehicle: saline with Tween-80 100 % of control | dose: 200.0 mg/kg/injection, schedule: Q01DX005 (ip), vehicle: saline with Tween-80 98 % of control

NC(CC(=O)O)c1ccccc1 (stereo not drawn)
inactive: [5] 107 % of control | [7] 102 % of control | [6] 102 % of control | [8] 90 % of control

CN=C(NCCCOC)c1ccc(NC(=O)c2ccc(C(=O)Nc3ccc(C(=NC)NCCCOC)cc3)cc2)cc1
inactive: dose: 5.0 mg/kg/injection, schedule: Q01DX009 (ip), vehicle: saline 118 % of control | dose: 5.0 mg/kg/injection, schedule: Q04DX003 (ip), vehicle: saline 100 % of control | dose: 10.0 mg/kg/injection, schedule: Q01DX009 (ip), vehicle: saline 122 % of control | dose: 10.0 mg/kg/injection, schedule: Q04DX003 (ip), vehicle: saline 100 % of control | dose: 20.0 mg/kg/injection, schedule: Q01DX009 (ip), vehicle: saline 90 % of control | dose: 20.0 mg/kg/injection, schedule: Q04DX003 (ip), vehicle: saline 95 % of control

CC(C)C(N)C(=O)NN (stereo not drawn)
inactive: dose: 50.0 mg/kg/injection, schedule: Q01DX005 (ip), vehicle: saline 110 % of control | dose: 100.0 mg/kg/injection, schedule: Q01DX005 (ip), vehicle: saline 105 % of control | dose: 200.0 mg/kg/injection, schedule: Q01DX005 (ip), vehicle: saline 110 % of control

C/C=C1/CN2C3CC1C1(C(=O)OC)C(OC(C)=O)[C@]4(C[C@H]21)c1ccccc1N(C)C34 (stereo partly drawn)
inactive: dose: 3.0 mg/kg/injection, schedule: Q01DX005 (ip), vehicle: Klucel (hydroxypropylcellulose) (HPC) 94 % of control | dose: 6.0 mg/kg/injection, schedule: Q01DX005 (ip), vehicle: Klucel (hydroxypropylcellulose) (HPC) 100 % of control | dose: 12.0 mg/kg/injection, schedule: Q01DX005 (ip), vehicle: Klucel (hydroxypropylcellulose) (HPC) 98 % of control | dose: 24.0 mg/kg/injection, schedule: Q01DX005 (ip), vehicle: Klucel (hydroxypropylcellulose) (HPC) 106 % of control

CCCCCCCCCCCCO[P+](=O)OCCCCCCCCCCCC
inactive: dose: 50.0 mg/kg/injection, schedule: Q01DX009 (ip), vehicle: saline sonified 110 % of control | dose: 66.0 mg/kg/injection, schedule: Q01DX009 (ip), vehicle: saline with Tween-80 109 % of control | dose: 100.0 mg/kg/injection, schedule: Q01DX009 (ip), vehicle: saline sonified 110 % of control | [7] 100 % of control and 95 % of control | dose: 100.0 mg/kg/injection, schedule: Q04DX003 (ip), vehicle: saline with Tween-80 95 % of control | dose: 150.0 mg/kg/injection, schedule: Q01DX009 (ip), vehicle: saline with Tween-80 100 % of control | [6] 90 % of control | dose: 200.0 mg/kg/injection, schedule: Q04DX003 (ip), vehicle: saline with Tween-80 91 % of control | [8] 90 % of control | dose: 400.0 mg/kg/injection, schedule: Q04DX003 (ip), vehicle: saline with Tween-80 95 % of control

COS(=O)(=O)C(F)(F)F
inactive: dose: 100.0 mg/kg/injection, schedule: Q01DX001 (ip), vehicle: saline 111 % of control | dose: 200.0 mg/kg/injection, schedule: Q01DX001 (ip), vehicle: saline 111 % of control | dose: 400.0 mg/kg/injection, schedule: Q01DX001 (ip), vehicle: saline 111 % of control

C/C(=N\Nc1nncn2cccc12)c1ccccc1
inactive: dose: 100.0 mg/kg/injection, schedule: Q04DX002 (ip), vehicle: saline with Tween-80 113 % of control | dose: 200.0 mg/kg/injection, schedule: Q04DX002 (ip), vehicle: saline with Tween-80 120 % of control | dose: 400.0 mg/kg/injection, schedule: Q04DX002 (ip), vehicle: saline with Tween-80 124 % of control

CCN(/C=N/N(C)S(C)(=O)=O)c1ccccc1
inactive: dose: 50.0 mg/kg/injection, schedule: Q01DX005 (ip), vehicle: Klucel (hydroxypropylcellulose) (HPC) 104 % of control | dose: 100.0 mg/kg/injection, schedule: Q01DX005 (ip), vehicle: Klucel (hydroxypropylcellulose) (HPC) 116 % of control | dose: 200.0 mg/kg/injection, schedule: Q01DX005 (ip), vehicle: Klucel (hydroxypropylcellulose) (HPC) 118 % of control

C(=C\c1ccc2ccccc2n1)/c1ccc2c(c1)OCO2
inactive: [7] 105 % of control | [6] 95 % of control | [8] 110 % of control

CCCCCCCCCCCCCCCC(=O)NCCN(CC)CC
inactive: [3] 105 % of control | [4] 100 % of control
